Earlier results as cited in patent publication EP4778926A1, “DEUTERATED DIARYL GLYCOLURIL TETRAMER COMPOUND AND USE THEREOF” (Shanghai Institute of Organic Chemistry, Chinese Academy of …, priority 2023, dated 2025).
Where two headings read alike, the source gives them in different places.

Columns and labels:
[1] = for TOF→0.9 time, Average time: rats, Rocuronium bromide (3.5 mg/kg), from literature (Liu et al.)
[2] = for TOF→0.9 time, Average value: rats, Vecuronium Bromide (0.7 mg/kg), from literature (Liu et al.)
[3] = rats; Cisatracurium Besylate (0.6 mg/kg); neostigmine 0.24 mg/kg; from literature (Liu et al.)
[4] = rats; pancuronium bromide (0.5 mg/kg); neostigmine 0.24 mg/kg; from literature (Liu et al.)

SMILES | TOF→0.9 time, Average time ([1]; Sugammadex Sodium 25 mg/kg) | time that TOF recovered to 0.9 ([1]; rocuronium bromide, sugammadex sodium at the same dose (25 mg/kg), literature data) | TOF→0.9 time, Average value ([2]; Sugammadex Sodium 25 mg/kg) | time that TOF recovered to 0.9 ([2]; vecuronium bromide, sugammadex sodium at the same dose (25 mg/kg), literature data) | TOF→0.9 time, Average time [3] | TOF→0.9 time, Average time ([1]; neostigmine 0.24 mg/kg) | TOF→0.9 time, Average value ([2]; neostigmine 0.24 mg/kg) | TOF→0.9 time, Average value [4]
O=C([O-])CCSC[C@H]1O[C@@H]2O[C@H]3[C@H](O)[C@@H](O)[C@@H](O[C@H]4[C@H](O)[C@@H](O)[C@@H](O[C@H]5[C@H](O)[C@@H](O)[C@@H](O[C@H]6[C@H](O)[C@@H](O)[C@@H](O[C@H]7[C@H](O)[C@@H](O)[C@@H](O[C@H]8[C@H](O)[C@@H](O)[C@@H](O[C@H]9[C@H](O)C(O)[C@@H](O[C@H]1[C@H](O)[C@H]2O)O[C@@H]9CSCCC(=O)[O-])O[C@@H]8CSCCC(=O)[O-])O[C@@H]7CSCCC(=O)[O-])O[C@@H]6CSCCC(=O)[O-])O[C@@H]5CSCCC(=O)[O-])O[C@@H]4CSCCC(=O)[O-])O[C@@H]3CSCCC(=O)[O-].[Na+].[Na+].[Na+].[Na+].[Na+].[Na+].[Na+].[Na+] (some centres unmarked) [Sugammadex Sodium] | 52 s | 52 s | 18 s | 18 s |  |  |  | 
CN(C)C(=O)Oc1cccc([N+](C)(C)C)c1 [neostigmine] |  |  |  |  | 210 s | 363 s | 315 s | 1371 s
